Test results: publication PMC9775191, “A Subset Screen of the Compounds Australia Scaffold Library Identifies 7-Acylaminodibenzoxazepinones as Potent and Selective Hits for Anti-Giardia Drug Discovery” (Biomedicines, 2022)

test system: G. duodenalis BRIS/91/HEPU/1279; experiment: Primary Giardia screen at 10 µM (live-cell imaging, automated counting); type: cell-based, Giardia duodenalis; settings: 24 h
Protocol: Each compound was assessed in singlicate, at a final concentration of 10 μM (0.4 μL of a 5 mM stock; diluted to a final volume of 200 μL in culture medium; 0.2% DMSO). […] Plates were incubated in sealed chambers filled with 3% O2, 5% CO2 in N2 and growth was assessed at 24 and 48 h using live cell imaging and automated counting as previously described. Growth inhibition was calculated by subtracting media only background counts and determining percentage growth relative to vehicle (0.2% DMSO) controls. The reliability of these assays was assessed by calculating Z’ factors for each plate as previously described.

Row | SMILES | Average % Inhibition 24h [%]
1 | CCOC(=O)N1CCN(C(=O)c2nn(-c3ccccc3)c3c2CCC3)CC1 [SN00778954] | 6.2
2 | CCN(CC)C(=O)C1CSCN1C(=O)c1cc(C)nc2c1nc1n2CCCCC1 (centres unmarked) [SN00779876] | 1.0
3 | Cc1ccc(C)c(NC(=O)Cc2nc(Cn3cnc([N+](=O)[O-])c3)cs2)c1 [SN00779996] | 8.5
4 | Cc1cc(N2C(=O)C(O)=C(C(=O)c3ccc(Cl)cc3)C2c2ccc([N+](=O)[O-])cc2)no1 (centres unmarked) [SN00780175] | 6.4
5 | O=[N+]([O-])c1ccccc1Sc1nnnn1C1CCOCC1 [SN00782002] | 6.2

same assay, conditions: 24 h, first singlicate assay

Row | SMILES | % Inhibition n=1 24h [%]
6 | CCOC(=O)N1CCN(C(=O)c2nn(-c3ccccc3)c3c2CCC3)CC1 [SN00778954] | 12.5
7 | CCN(CC)C(=O)C1CSCN1C(=O)c1cc(C)nc2c1nc1n2CCCCC1 (centres unmarked) [SN00779876] | 1.9
8 | Cc1ccc(C)c(NC(=O)Cc2nc(Cn3cnc([N+](=O)[O-])c3)cs2)c1 [SN00779996] | 0.0
9 | Cc1cc(N2C(=O)C(O)=C(C(=O)c3ccc(Cl)cc3)C2c2ccc([N+](=O)[O-])cc2)no1 (centres unmarked) [SN00780175] | 12.8
10 | O=[N+]([O-])c1ccccc1Sc1nnnn1C1CCOCC1 [SN00782002] | 12.3

same assay, conditions: 24 h, re-assessment

Row | SMILES | % Inhibition n=2 24h [%]
11 | CCOC(=O)N1CCN(C(=O)c2nn(-c3ccccc3)c3c2CCC3)CC1 [SN00778954] | 0.0
12 | CCN(CC)C(=O)C1CSCN1C(=O)c1cc(C)nc2c1nc1n2CCCCC1 (centres unmarked) [SN00779876] | 0.0
13 | Cc1ccc(C)c(NC(=O)Cc2nc(Cn3cnc([N+](=O)[O-])c3)cs2)c1 [SN00779996] | 16.9
14 | Cc1cc(N2C(=O)C(O)=C(C(=O)c3ccc(Cl)cc3)C2c2ccc([N+](=O)[O-])cc2)no1 (centres unmarked) [SN00780175] | 0.0
15 | O=[N+]([O-])c1ccccc1Sc1nnnn1C1CCOCC1 [SN00782002] | 0.0

same assay, conditions: 48 h

Row | SMILES | Average % Inhibition 48h [%]
16 | CCOC(=O)N1CCN(C(=O)c2nn(-c3ccccc3)c3c2CCC3)CC1 [SN00778954] | 36.1
17 | CCN(CC)C(=O)C1CSCN1C(=O)c1cc(C)nc2c1nc1n2CCCCC1 (centres unmarked) [SN00779876] | 31.1
18 | Cc1ccc(C)c(NC(=O)Cc2nc(Cn3cnc([N+](=O)[O-])c3)cs2)c1 [SN00779996] | 59.9
19 | Cc1cc(N2C(=O)C(O)=C(C(=O)c3ccc(Cl)cc3)C2c2ccc([N+](=O)[O-])cc2)no1 (centres unmarked) [SN00780175] | 29.6
20 | O=[N+]([O-])c1ccccc1Sc1nnnn1C1CCOCC1 [SN00782002] | 8.6

same assay, conditions: 48 h, first singlicate assay

Row | SMILES | % Inhibition n=1 48h [%]
21 | CCOC(=O)N1CCN(C(=O)c2nn(-c3ccccc3)c3c2CCC3)CC1 [SN00778954] | 38.8
22 | Cc1noc2ncc(C(=O)N3CCN(C(C)C)CC3)cc12 [SN00779057] | 0.0
23 | O=C1CC(C(=O)N2CCN(S(=O)(=O)c3ccc(Br)cc3)CC2)c2ccc(F)cc2N1 (centres unmarked) [SN00779129] | 0.0
24 | CCCn1c(=O)c2c(nc3n2CCN3c2ccc(CC)cc2)n(C)c1=O [SN00779194] | 0.0
25 | Cn1c(=O)n(CC(=O)C(C)(C)C)c(=O)c2c1nc1oc(C(C)(C)C)cn12 [SN00779257] | 18.6
26 | Cn1cc(C(=O)N2CCCC2C2CCCCC2)ccc1=O (centres unmarked) [SN00779264] | 13.1
27 | O=[N+]([O-])c1ncn(Cc2nc(-c3ccc(C(F)(F)F)cc3)no2)n1 [SN00779286] | 16.5
28 | O=C(Nc1cccnc1)C1=NN(Cc2ccccc2)C(=O)CC1 [SN00779378] | 15.0
29 | CN(C)c1ccc(NC(=O)C2=NN(Cc3ccc(F)cc3)C(=O)CC2)cc1 [SN00779392] | 8.0
30 | CSCCC(NS(=O)(=O)c1ccc(C)cc1)C(=O)Nc1nc(C)c(-c2ccccn2)s1 (centres unmarked) [SN00779415] | 0.0
31 | Cc1[nH]c(=O)sc1S(=O)(=O)N1CCN(c2ccccc2[N+](=O)[O-])CC1 [SN00779481] | 0.0
32 | O=C(Cc1csc(Cc2ccccn2)n1)Nc1ccc2nc(N3CCOCC3)sc2c1 [SN00779496] | 2.9
33 | CC(NC(=O)Cc1csc(Cc2ccccn2)n1)c1ccc(F)cc1 (centres unmarked) [SN00779507] | 0.0
34 | Cc1c(C(=O)N2CCOCC2C)nnn1-c1cccc2c1CCN(Cc1ccccc1)C2 (centres unmarked) [SN00779590] | 5.5
35 | CCc1nc(C)c2c(C)c(C(=O)N3CCN(c4ncccn4)CC3)sc2n1 [SN00779630] | 22.3
36 | CCc1nc(C)c2c(C)c(C(=O)N3CCN(Cc4ccc(OC)c(F)c4)CC3)sc2n1 [SN00779632] | 14.8
37 | O=S(=O)(c1ccc(Cl)cc1)N1CCC(c2nc(-c3c(Cl)cccc3Cl)no2)CC1 [SN00779695] | 11.2
38 | COc1cc(-c2noc(-c3cc(C4CC4)n[nH]3)n2)cc(OC)c1OC [SN00779739] | 13.7
39 | O=C(c1ccc2nncn2c1)N1CCc2[nH]nc(C(F)(F)F)c2C1 [SN00779777] | 3.6

Row | SMILES | % Inhibition n=1 48h [%]
40 | CCc1ncncc1C(=O)N1CCN(Cc2nc(C(C)C)no2)CC1 [SN00779817] | 26.6
41 | CCN(CC)C(=O)C1CSCN1C(=O)c1cc(C)nc2c1nc1n2CCCCC1 (centres unmarked) [SN00779876] | 62.1
42 | O=c1c2ccsc2ncn1Cc1noc(-c2ccsc2)n1 [SN00779979] | 0.0
43 | Cc1ccc(C)c(NC(=O)Cc2nc(Cn3cnc([N+](=O)[O-])c3)cs2)c1 [SN00779996] | 47.9
44 | O=C1CCCN1CC1CCCCN1c1cc(Cl)c(C(F)(F)F)cc1[N+](=O)[O-] (centres unmarked) [SN00780038] | 9.6
45 | CN1C(=O)CC(C(=O)NNC(=O)COc2ccccc2-c2ccccc2)C1c1cccnc1 (centres unmarked) [SN00780071] | 9.4
46 | O=C(c1ccc[nH]c1=S)N1CCCC(CN2CCN(c3ccccn3)CC2)C1 (centres unmarked) [SN00780166] | 0.0
47 | Cc1cc(N2C(=O)C(O)=C(C(=O)c3ccc(Cl)cc3)C2c2ccc([N+](=O)[O-])cc2)no1 (centres unmarked) [SN00780175] | 59.1
48 | COc1ccc(OC)c(C2C(C(=O)c3ccco3)=C(O)C(=O)N2c2cc(C)on2)c1 (centres unmarked) [SN00780182] | 21.6
49 | O=C(CCNS(=O)(=O)c1cccnc1)N1CCCC(c2nc3ccccc3o2)C1 (centres unmarked) [SN00780535] | 0.0
50 | O=C1OCCN1CCCN1CCCC(c2nc3ccccc3o2)C1 (centres unmarked) [SN00780555] | 0.0
51 | CCOc1ccccc1OC1CCN(c2ncnc3nc[nH]c23)CC1 [SN00780570] | 31.1
52 | Cc1ccc(C)c(OC2CCN(c3ncnc4nc[nH]c34)CC2)c1 [SN00780571] | 12.5
53 | Cc1nc(CN2CCN(C(=O)c3c(C)c(C)n[nH]c3=O)CC2)cs1 [SN00780594] | 0.0
54 | C=CCc1ccc(OCC(O)CN2C(=O)NC(C)(c3ccccn3)C2=O)c(OC)c1 (centres unmarked) [SN00780622] | 48.2
55 | COC(=O)c1c(C(=O)OC)c(-c2ccc(NS(=O)(=O)c3ccc(C)s3)cc2)n2c1CCC2 [SN00780656] | 9.3
56 | CC(C)(C)c1nc(CN2CCCN(C(=O)CCCNC(=O)NC3CCCCC3)CC2)no1 [SN00780682] | 11.6
57 | O=[N+]([O-])c1ccccc1Sc1nnnn1C1CCOCC1 [SN00782002] | 15.2

same assay, conditions: 48 h, re-assessment

Row | SMILES | % Inhibition n=2 48h [%]
58 | CCOC(=O)N1CCN(C(=O)c2nn(-c3ccccc3)c3c2CCC3)CC1 [SN00778954] | 33.3
59 | CCN(CC)C(=O)C1CSCN1C(=O)c1cc(C)nc2c1nc1n2CCCCC1 (centres unmarked) [SN00779876] | 0.0
60 | Cc1ccc(C)c(NC(=O)Cc2nc(Cn3cnc([N+](=O)[O-])c3)cs2)c1 [SN00779996] | 71.9
61 | Cc1cc(N2C(=O)C(O)=C(C(=O)c3ccc(Cl)cc3)C2c2ccc([N+](=O)[O-])cc2)no1 (centres unmarked) [SN00780175] | 0.0
62 | O=[N+]([O-])c1ccccc1Sc1nnnn1C1CCOCC1 [SN00782002] | 2.0
